Data on 18 compounds can be found in US9969742B2, “Imidazotriazinone compounds” (Ironwood Pharmaceuticals, Inc., priority 2012, dated 2018).

What all share (assay type): biochemical
One assay deals with T1, PDE9A2 (Homo sapiens, UniProt O76083).
T1 construct: purchased Reaction Biology Corporation, Malvern, Pa
Description: Phosphodiesterase enzyme screening assay, PDE9A2. The procedure, abridged: (§1)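 Reaction started by adding substrate (4.0 μM cGMP) to recombinant human enzyme in HEPES pH 7.5 buffer with MgCl2, DTT and Brij; 1 h at room temperature; quenched with EDTA-containing stop buffer; product and substrate resolved electrophoretically and quantified by fluorescence relative to uninhibited controls.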

The target of a further assay is T2, PDE1A (Homo sapiens, UniProt P54750).
T2 construct: purchased Reaction Biology Corporation, Malvern, Pa
T2 sequence (P54750 whole entry): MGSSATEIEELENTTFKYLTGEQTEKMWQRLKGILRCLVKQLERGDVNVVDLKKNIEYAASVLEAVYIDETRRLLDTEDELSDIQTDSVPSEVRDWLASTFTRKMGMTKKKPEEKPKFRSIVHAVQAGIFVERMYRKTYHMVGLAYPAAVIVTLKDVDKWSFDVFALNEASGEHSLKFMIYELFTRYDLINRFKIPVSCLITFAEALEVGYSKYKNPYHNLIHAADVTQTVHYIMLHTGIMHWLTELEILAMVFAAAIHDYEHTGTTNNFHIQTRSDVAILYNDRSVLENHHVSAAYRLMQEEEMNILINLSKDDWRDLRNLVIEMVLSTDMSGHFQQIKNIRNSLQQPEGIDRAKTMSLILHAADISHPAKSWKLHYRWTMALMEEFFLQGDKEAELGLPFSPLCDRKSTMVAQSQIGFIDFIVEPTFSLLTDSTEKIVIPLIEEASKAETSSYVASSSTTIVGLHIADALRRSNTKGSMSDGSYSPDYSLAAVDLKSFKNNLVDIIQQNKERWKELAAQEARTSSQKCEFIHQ
Description: Phosphodiesterase enzyme screening assay, PDE1A. The method, boiled down:
as §1

For the next assay, the target named is T3, PDE1B (Homo sapiens, UniProt Q01064).
T3 construct: purchased Reaction Biology Corporation, Malvern, Pa
T3 sequence (Q01064 whole entry): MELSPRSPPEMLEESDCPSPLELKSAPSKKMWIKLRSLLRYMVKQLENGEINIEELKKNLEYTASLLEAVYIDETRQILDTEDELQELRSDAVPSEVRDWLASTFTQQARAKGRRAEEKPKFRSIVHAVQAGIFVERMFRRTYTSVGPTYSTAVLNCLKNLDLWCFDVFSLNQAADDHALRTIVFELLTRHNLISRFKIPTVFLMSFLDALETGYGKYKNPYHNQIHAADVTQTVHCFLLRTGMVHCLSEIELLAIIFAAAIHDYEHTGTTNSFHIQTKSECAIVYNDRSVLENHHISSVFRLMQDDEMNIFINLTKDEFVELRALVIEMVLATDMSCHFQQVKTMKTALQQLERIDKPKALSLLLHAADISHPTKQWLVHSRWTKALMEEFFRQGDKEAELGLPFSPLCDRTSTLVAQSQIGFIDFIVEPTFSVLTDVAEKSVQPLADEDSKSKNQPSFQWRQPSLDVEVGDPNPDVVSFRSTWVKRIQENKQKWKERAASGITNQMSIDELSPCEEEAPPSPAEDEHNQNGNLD
Nature of the assay: Phosphodiesterase enzyme screening assay, PDE1B. The method, boiled down:
as §1

Setting [1] is: Table 3, 4.0 μM cGMP substrate, 1 hour at R.T., read-out: Band (PDE9A2 IC50).
Where [2] appears, read: ratio of IC50 values, PDE1A versus PDE9A2, value greater than 1 = greater selectivity for PDE9A2.
Setting [3] is: ratio of IC50 values, PDE1B versus PDE9A2, value greater than 1 = greater selectivity for PDE9A2.
Setting [4] is: Table 1, 10 concentrations, 4.0 μM cGMP substrate, 1 hour at R.T., read-out: Band (PDE9A2 IC50).
Setting [5] is: Table 1, ratio of IC50 values, value greater than 1 indicates greater selectivity for PDE9A2.
[6] abbreviates: 4.0 μM cGMP substrate, 1 hour at R.T., read-out: Band (PDE9A2 IC50).
[7] abbreviates: ratio of IC50 values PDE1A / PDE9A2, value greater than 1 = greater selectivity for PDE9A2.
Where [8] appears, read: ratio of IC50 values PDE1B / PDE9A2, value greater than 1 = greater selectivity for PDE9A2.
The mark [9] stands for this setting: ratio of IC50 values, value greater than 1 indicates greater selectivity for PDE9A2.
Where [10] appears, read: Table 2, 10 concentrations, 4.0 μM cGMP substrate, 1 hour at R.T., read-out: Band (PDE9A2 IC50).
The mark [11] stands for this setting: Table 2, ratio of IC50 values, value greater than 1 indicates greater selectivity for PDE9A2.

Structures are written as SMILES. Read-outs that look alike come from different tables or passages of the source.

T1 sequence (O76083 1-533 isoform O76083-2): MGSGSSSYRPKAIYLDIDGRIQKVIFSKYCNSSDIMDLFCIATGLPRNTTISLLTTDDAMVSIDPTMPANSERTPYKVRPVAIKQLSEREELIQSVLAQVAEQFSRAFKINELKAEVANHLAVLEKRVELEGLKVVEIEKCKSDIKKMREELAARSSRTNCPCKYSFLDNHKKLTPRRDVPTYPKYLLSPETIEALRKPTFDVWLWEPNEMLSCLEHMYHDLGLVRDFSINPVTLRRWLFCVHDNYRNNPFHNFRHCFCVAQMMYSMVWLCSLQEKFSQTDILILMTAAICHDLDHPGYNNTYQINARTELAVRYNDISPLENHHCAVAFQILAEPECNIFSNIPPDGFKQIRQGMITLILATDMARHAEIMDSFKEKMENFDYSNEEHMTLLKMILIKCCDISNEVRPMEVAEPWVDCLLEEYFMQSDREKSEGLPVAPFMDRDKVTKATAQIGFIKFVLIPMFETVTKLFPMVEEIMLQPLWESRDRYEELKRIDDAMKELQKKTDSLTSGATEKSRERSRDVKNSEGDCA

The term IC50 denotes the midpoint of a concentration-inhibition curve. As to `CC1CN(Cc2ncccc2C(F)(F)F)CC1c1nn2c(C3CCOCC3)ncc2c(=O)[nH]1` (single isomer, unassigned; (+)) [(+)-2-((3,4-trans)-4-methyl-1-((3-(trifluoromethyl)pyridin-2-yl)methyl)pyrrolidin-3-yl)-7-(tetrahydro-2H-pyran-4-yl)imidazo[5,1-f][1,2,4]triazin-4(3H)-one], the IC50 at PDE9A2 (setting [1]) is < 1000 nM. Moreover, at PDE1A (setting [2]), the “PDE1A selectivity (versus PDE9A2)” value was 123. In addition, on PDE1B (setting [3]), the “PDE1B selectivity (versus PDE9A2)” value is on record as 58.
For `C[C@@H]1CN(Cc2ncccn2)C[C@H]1c1nn2c(C3CCOCC3)ncc2c(=O)[nH]1` (relative stereo) [(+)-2-((3,4-trans)-4-, (+)-2-((3,4-trans)-4-methyl-1-(pyrimidin-2-ylmethyl)pyrrolidin-3-yl)-7-(tetrahydro-2H-pyran-4-yl)imidazo[5,1-f][1,2,4]triazin-4(3H)-one] the same measures were < 1000 nM, 214 and 456.
`CC1CN(Cc2cn3cccnc3n2)CC1c1nn2c(C3CCOCC3)ncc2c(=O)[nH]1` (single isomer, unassigned; (-)) [(−)-2-((3,4-trans)-1-(imidazo[1,2-a]pyrimidin-2-ylmethyl)-4-methylpyrrolidin-3-yl)-7-(tetrahydro-2H-pyran-4-yl)imidazo[5,1-f][1,2,4]triazin-4(3H)-one]: the IC50 on PDE9A2 (setting [4]) was < 1000 nM. Moreover, the “PDE1A selectivity (versus PDE9A2)” value at PDE1A (setting [5]) is on record as 188. Further, the “PDE1B selectivity (versus PDE9A2)” value on PDE1B (setting [5]) is 591.
For `CC1CN(Cc2ccc3nccn3n2)CC1c1nn2c(C3CCOCC3)ncc2c(=O)[nH]1` (single isomer, unassigned; (+)) [(+)-2-((3,4-trans)-1-(imidazo[1,2-b]pyridazin-6-ylmethyl)-4-methylpyrrolidin-3-yl)-7-(tetrahydro-2H-pyran-4-yl)imidazo[5,1-f][1,2,4]triazin-4(3H)-one] the same measures were < 1000 nM, 232 and 633.
Take `Cc1cc(CN2CC(C)C(c3nn4c(C5CCOCC5)ncc4c(=O)[nH]3)C2)ccn1` (single isomer, unassigned; (+)) [(+)-2-((3,4-trans)-4-methyl-1-((2-methylpyridin-4-yl)methyl)pyrrolidin-3-yl)-7-(tetrahydro-2H-pyran-4-yl)imidazo[5,1-f][1,2,4]triazin-4(3H)-one]: the half-inhibitory concentration (IC50) at PDE9A2 (setting [6]) is < 1000 nM. The “PDE1A selectivity (versus PDE9A2)” value on PDE1A (setting [7]) turned out to be 232. Also, at PDE1B (setting [8]), the “PDE1B selectivity (versus PDE9A2)” value stood at 421.
Regarding `CC1CN(Cc2cnn3ccccc23)CC1c1nn2c(C3CCOCC3)ncc2c(=O)[nH]1` (single isomer, unassigned; (+)) [(+)-2-((3,4-trans)-4-methyl-1-(pyrazolo[1,5-a]pyridin-3-ylmethyl)pyrrolidin-3-yl)-7-(tetrahydro-2H-pyran-4-yl)imidazo[5,1-f][1,2,4]triazin-4(3H)-one], the IC50 on PDE9A2 (read-out: Band (PDE9A2 IC50)) was < 1000 nM. Besides, the “PDE1A selectivity (versus PDE9A2)” value at PDE1A (setting [9]) was 3240. For the same compound, the “PDE1B selectivity (versus PDE9A2)” value at PDE1B (setting [9]) is 1010.
On to `CC1CN(Cc2c(F)ccc(F)c2Cl)CC1c1nn2c(C3CCOCC3)ncc2c(=O)[nH]1` (single isomer, unassigned; (+)) [(+)-2-((3,4-trans)-1-(2-chloro-3,6-difluorobenzyl)-4-methylpyrrolidin-3-yl)-7-(tetrahydro-2H-pyran-4-yl)imidazo[5,1-f][1,2,4]triazin-4(3H)-one], for which the IC50 at PDE9A2 (setting [6]) is < 1000 nM. Also, the “PDE1A selectivity (versus PDE9A2)” value at PDE1A (setting [7]) worked out at 118. Also, the “PDE1B selectivity (versus PDE9A2)” value at PDE1B (setting [8]) stood at 231.
In the case of `CC1CN(Cc2ncc(F)cn2)CC1c1nn2c(C3CCOCC3)ncc2c(=O)[nH]1` (single isomer, unassigned; (+)) [(+)-2-((3,4-trans)-1-((5-fluoropyrimidin-2-yl)methyl)-4-methylpyrrolidin-3-yl)-7-(tetrahydro-2H-pyran-4-yl)imidazo[5,1-f][1,2,4]triazin-4(3H)-one], the IC50 at PDE9A2 (setting [10]) is < 1000 nM. Further, the “PDE1A selectivity (versus PDE9A2)” value at PDE1A (setting [11]) came out at 133. Besides, the “PDE1B selectivity (versus PDE9A2)” value at PDE1B (setting [11]) amounted to 279.
For `CC1CN(Cc2ncc(C#N)cn2)CC1c1nn2c(C3CCOCC3)ncc2c(=O)[nH]1` (single isomer, unassigned; (+)) [(+)-2-(((3,4-trans)-3-methyl-4-(4-oxo-7-(tetrahydro-2H-pyran-4-yl)-3,4-dihydroimidazo[5,1-f][1,2,4]triazin-2-yl)pyrrolidin-1-yl)methyl)pyrimidine-5-carbonitrile], at PDE9A2 (setting [10]), the IC50 was < 1000 nM. Further, the “PDE1A selectivity (versus PDE9A2)” value at PDE1A (setting [11]) is 22. Besides, the “PDE1B selectivity (versus PDE9A2)” value at PDE1B (setting [11]) stood at 65.
Consider `CC1CN(Cc2cccc(N3CCCC3)c2)CC1c1nn2c(C3CCOCC3)ncc2c(=O)[nH]1` (single isomer, unassigned; (+)) [(+)-2-((3,4-trans)-4-methyl-1-(3-(pyrrolidin-1-yl)benzyl)pyrrolidin-3-yl)-7-(tetrahydro-2H-pyran-4-yl)imidazo[5,1-f][1,2,4]triazin-4(3H)-one], for which, on PDE9A2 (setting [4]), the IC50 was < 1000 nM. Moreover, the “PDE1A selectivity (versus PDE9A2)” value at PDE1A (setting [5]) is recorded as 700. For the same compound, on PDE1B (setting [5]), the “PDE1B selectivity (versus PDE9A2)” value was 1190.
As to `CC1CN(Cc2cccnc2)CC1c1nn2c(C3CCC(F)(F)CC3)ncc2c(=O)[nH]1` (single isomer, unassigned; (+)) [(+)-7-(4,4-difluorocyclohexyl)-2-((3,4-trans)-4-methyl-1-(pyridin-3-ylmethyl)pyrrolidin-3-yl)imidazo[5,1-f][1,2,4]triazin-4(3H)-one], the IC50 on PDE9A2 (IC50 band, 4.0 μM cGMP substrate, 1 hour at R.T.) is < 1000 nM. Also, the “PDE1A selectivity (versus PDE9A2)” value at PDE1A (ratio of IC50 values PDE1A vs PDE9A2, value greater than 1 indicates greater selectivity for PDE9A2) worked out at 181. The “PDE1B selectivity (versus PDE9A2)” value on PDE1B (ratio of IC50 values PDE1B vs PDE9A2, value greater than 1 indicates greater selectivity for PDE9A2) turned out to be 409.
Take `CC1CN(Cc2cccc(Br)c2)CC1c1nn2c(C3CCOCC3)ncc2c(=O)[nH]1` (single isomer, unassigned; (+)) [(+)-2-((3,4-trans)-1-(3-bromobenzyl)-4-methylpyrrolidin-3-yl)-7-(tetrahydro-2H-pyran-4-yl)imidazo[5,1-f][1,2,4]triazin-4(3H)-one]: the half-maximal inhibitory concentration (IC50) on PDE9A2 (setting [4]) was < 1000 nM. The “PDE1A selectivity (versus PDE9A2)” value at PDE1A (setting [5]) worked out at 243. Besides, at PDE1B (setting [5]), the “PDE1B selectivity (versus PDE9A2)” value came out at 92.
For `CC1CN(C)CC1c1nn2c(C3CCOCC3)ncc2c(=O)[nH]1` (single isomer, unassigned; (+)) [(+)-((3,4-trans)-1,4-dimethylpyrrolidin-3-yl)-7-(tetrahydro-2H-pyran-4-yl)imidazo[5,1-f][1,2,4]triazin-4(3H)-one] the same measures were < 1000 nM, 75 and 121.
`Cc1nc(CN2CC(C)C(c3nn4c(C5CCOCC5)ncc4c(=O)[nH]3)C2)no1` (single isomer, unassigned; (+)) [(+)-2-((3,4-trans)-4-methyl-1-((5-methyl-1,2,4-oxadiazol-3-yl)methyl)pyrrolidin-3-yl)-7-(tetrahydro-2H-pyran-4-yl)imidazo[5,1-f][1,2,4]triazin-4(3H)-one]: the half-inhibitory concentration (IC50) on PDE9A2 (read-out: Band (PDE9A2 IC50)) is < 1000 nM. Besides, the “PDE1A selectivity (versus PDE9A2)” value at PDE1A (setting [9]) is given as 20. Besides, the “PDE1B selectivity (versus PDE9A2)” value on PDE1B (setting [9]) was 21.
Regarding `COc1cnc(CN2CC(C)C(c3nn4c(C5CCOCC5)ncc4c(=O)[nH]3)C2)nc1` (single isomer, unassigned; (+)) [(+)-2-((3,4-trans)-1-((5-methoxypyrimidin-2-yl)methyl)-4-methylpyrrolidin-3-yl)-7-(tetrahydro-2H-pyran-4-yl)imidazo[5,1-f][1,2,4]triazin-4(3H)-one], the IC50 at PDE9A2 (setting [10]) is < 1000 nM. At PDE1A (setting [11]), the “PDE1A selectivity (versus PDE9A2)” value was 26. The “PDE1B selectivity (versus PDE9A2)” value at PDE1B (setting [11]) is listed as 64.
Consider `CC1CN(CCc2ccccc2)CC1c1nn2c(C3CCOCC3)ncc2c(=O)[nH]1` (single isomer, unassigned; (+)) [(+)-2-((3,4-trans)-4-methyl-1-phenethylpyrrolidin-3-yl)-7-(tetrahydro-2H-pyran-4-yl)imidazo[5,1-f][1,2,4]triazin-4(3H)-one], for which the IC50 on PDE9A2 (setting [4]) was < 1000 nM. For the same compound, at PDE1A (setting [5]), the “PDE1A selectivity (versus PDE9A2)” value amounted to 28. Further, at PDE1B (setting [5]), the “PDE1B selectivity (versus PDE9A2)” value amounted to 23.
`CC1CN(Cc2c(F)cccc2Cl)CC1c1nn2c(C3CCOCC3)ncc2c(=O)[nH]1` (single isomer, unassigned; (+)) [(+)-2-((3,4-trans)-1-(2-chloro-6-fluorobenzyl)-4-methylpyrrolidin-3-yl)-7-(tetrahydro-2H-pyran-4-yl)imidazo[5,1-f][1,2,4]triazin-4(3H)-one]: the IC50 on PDE9A2 (setting [6]) is < 1000 nM. The “PDE1A selectivity (versus PDE9A2)” value at PDE1A (setting [7]) stood at 196. For the same compound, the “PDE1B selectivity (versus PDE9A2)” value at PDE1B (setting [8]) is recorded as 252.
Take `CC1CN(Cc2cccc3cccnc23)CC1c1nn2c(C3CCOCC3)ncc2c(=O)[nH]1` (single isomer, unassigned; (+)) [(+)-2-((3,4-trans)-4-methyl-1-(quinolin-8-ylmethyl)pyrrolidin-3-yl)-7-(tetrahydro-2H-pyran-4-yl)imidazo[5,1-f][1,2,4]triazin-4(3H)-one]: on PDE9A2 (setting [1]), the IC50 was < 1000 nM. Besides, the “PDE1A selectivity (versus PDE9A2)” value on PDE1A (setting [2]) was found to be 647. The “PDE1B selectivity (versus PDE9A2)” value at PDE1B (setting [3]) came out at 673.
